Results: patent US6664277B1, “Prenylation inhibitors containing dimethylcyclobutane and methods of their synthesis and use” (PPD Discovery, Inc., priority 2002, dated 2003)

Target: T1, GGPTase I (Rattus norvegicus, UniProt P53610+Q04631)
T1 construct: made in house; host or cells: Sf9 insect cells (baculovirus co-infection)
Experiment: GGPTase I inhibition assay ([3H]GGPP transfer to Ras-CVLL)
Assay type: biochemical
Details: Table I; test compound 100 nM; mixtures of regioisomers and/or enantiomers unless indicated
Protocol: GGPTase-I activity was determined by the method of Casey et al, Proc. Natl. Acad. Sci. USA, 1991, 88, 8631-8635. This method measures the transfer of isoprenoid from ^3H-geranylgeranyl diphosphate (GGPP) into a Ras protein with a C-terminal leucine-for-serine substitution (designated as Ras-CVLL).
Assays for the inhibition studies of GGPTase I were performed in a manner analogous to that described by Casey, et al., Proc. Natl. Acad. Sci. USA, 1991, 88, 8631-8635, with the following modifications. For those assays, the reaction mixtures contained the following components in 50 μl:0.25 μM [^3H]GGPP (sp. act. 8-10 Ci/mmol), 2.5 μM Ras-CVLL, 50 mM Tris-Cl, pH 7.7, 20 mM KCl, 5 mM MgCl2, 5 μM ZnCl2, 1 mM DTT, 0.5 mM Zwittergent 3-14 and the desired amount of the compound to be tested for inhibitory potential. After pre-equilibrating the assay mixture at 30° C. in the absence of the enzyme, the reaction was initiated by addition of the enzyme (75 ng). Following an about 10 minute incubation at about 30° C., the reactions were terminated by addition of about 0.5 ml of about 4% SDS. About 40 mg of bovine brain membranes was added to the samples to enhance recovery during precipitation. Product was precipitated by addition of about 0.5 ml of 30% TCA, allowed to stand at room temperature for about 15 minutes, and processed by filtration through glass-fiber filters as described previously (Reiss et al., Methods: Companion to Methods in Enzymology, 1991, 1, 241-245). Reactions were never allowed to proceed to more than 10% completion based on the limiting substrate. Assays for the inhibition studies of FPTase were performed analogous the GGPTase I inhibition studies, except [^3H]GGPP was replaced with 0.25 μM of [^3H]FPP (sp. act. 8-10 ci/mmol) and Ras-CVLL was replaced with 1 μM H-Ras.
Using the method described above, the GGPTase I inhibitory activities of some of the compounds of the present invention were evaluated. The concentration of the test compound used was 100 nM. Mixtures of regioisomers and/or enantiomers are used unless indicated otherwise (for example, the position of substituents on the dimethyl cyclobutane moiety).

T1 sequence (P53610 whole entry, one chain of several): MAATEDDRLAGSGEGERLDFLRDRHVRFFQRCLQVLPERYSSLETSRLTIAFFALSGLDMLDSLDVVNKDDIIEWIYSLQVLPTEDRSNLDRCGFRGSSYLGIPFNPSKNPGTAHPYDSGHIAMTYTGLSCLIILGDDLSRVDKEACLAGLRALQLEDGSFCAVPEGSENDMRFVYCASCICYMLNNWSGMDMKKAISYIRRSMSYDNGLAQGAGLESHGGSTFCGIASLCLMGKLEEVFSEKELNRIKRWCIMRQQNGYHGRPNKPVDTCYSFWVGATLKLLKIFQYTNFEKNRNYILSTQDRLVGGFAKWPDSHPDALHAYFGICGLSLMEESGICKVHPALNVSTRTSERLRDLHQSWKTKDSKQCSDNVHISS

Inhibition, Yes:
CN1CC[C@H](c2ccccc2)[C@H]1C(N)=O
CN1Cc2ccccc2C[C@H]1C(N)=O

Same assay, conditions: Table II; test compound 100 nM; mixtures of regioisomers and/or enantiomers unless indicated

Inhibition, yes:
CC1(C)[C@@H](CC(=O)NC(CO)Cc2ccccc2)C[C@@H]1c1cc(-c2cccnc2)nn1-c1ccc(Cl)c(Cl)c1 (stereo partly shown) [CH2OH]
CC1(C)[C@@H](CC(=O)NC(Cc2ccccc2)C(=O)OCc2ccccc2)C[C@@H]1c1cc(-c2cccnc2)nn1-c1ccc(Cl)c(Cl)c1 (stereo partly shown) [CO2Bn]
CC1(C)[C@@H](CC(=O)NC(Cc2ccccc2)C(=O)O)C[C@@H]1c1cc(-c2cccnc2)nn1-c1ccc(Cl)c(Cl)c1 (stereo partly shown) [CO2H]
COC(=O)C(Cc1ccccc1)NC(=O)C[C@H]1C[C@H](c2cc(-c3cccnc3)nn2-c2ccc(Cl)c(Cl)c2)C1(C)C (stereo partly shown) [CO2Me]
CC1(C)[C@@H](CC(=O)NC(Cc2ccccc2)C(N)=O)C[C@@H]1c1cc(-c2cccnc2)nn1-c1ccc(Cl)c(Cl)c1 (stereo partly shown) [CONH2]
CNC(=O)C(Cc1ccccc1)NC(=O)C[C@H]1C[C@H](c2cc(-c3cccnc3)nn2-c2ccc(Cl)c(Cl)c2)C1(C)C (stereo partly shown) [CONHMe]
CC1(C)[C@@H](CC(=O)NCCc2ccccc2)C[C@@H]1c1cc(-c2cccnc2)nn1-c1ccc(Cl)c(Cl)c1 [H]

Same assay, conditions: Table V; test compound 100 nM; mixtures of regioisomers and/or enantiomers unless indicated

Inhibition, yes:
CC1(C)[C@@H](CC(=O)NC(Cc2ccccc2)C(N)=O)C[C@@H]1c1cc(-c2cccnc2)nn1-c1ccc(Cl)c(Cl)c1 (stereo partly shown) [Bn]
CC1(C)[C@@H](CC(=O)NC(CO)Cc2ccccc2)C[C@@H]1c1cc(-c2cccnc2)nn1-c1ccc(Cl)c(Cl)c1 (stereo partly shown) [CH2OH]
CC1(C)[C@@H](CC(=O)NCCc2ccccc2)C[C@@H]1c1cc(-c2cccnc2)nn1-c1ccc(Cl)c(Cl)c1 [H]
CC1(C)[C@@H](CC(=O)NC(C(N)=O)c2ccccc2)C[C@@H]1c1cc(-c2cccnc2)nn1-c1ccc(Cl)c(Cl)c1 (stereo partly shown) [Ph]

Same assay, conditions: Table VI; test compound 100 nM; mixtures of regioisomers and/or enantiomers unless indicated

Inhibition, no:
CC1(C)[C@@H](CCNC(Cc2ccccc2)C(N)=O)C[C@H]1c1cc(-c2cccnc2)nn1-c1ccc(Cl)c(Cl)c1 (stereo partly shown)

Inhibition, yes:
CC1(C)[C@@H](CNC(=O)[C@@H](N)Cc2ccccc2)C[C@H]1c1cc(-c2cccnc2)nn1-c1ccc(Cl)c(Cl)c1
CN(C(=O)C[C@H]1C[C@H](c2cc(-c3cccnc3)nn2-c2ccc(Cl)c(Cl)c2)C1(C)C)C(Cc1ccccc1)C(N)=O (stereo partly shown)
